Assay results reported in the NIST ThermoML archive (doi:10.1016/j.jct.2015.07.025).
Values joined by “and” are separate entries in the source; they are usually repeats but may differ in a detail not shown here. Equal entries are not always repeated. Numbers after ± are expanded uncertainties.

What was measured:
[1] = for vapor or sublimation pressure: Liquid, Transpiration method; for Normal melting temperature: Crystal, DTA
[2] = Molar enthalpy of transition or fusion; conditions: Crystal; DSC

**Q.** For `Cc1cccc(C#N)c1` [3-cyanotoluene], which “vapor or sublimation pressure” value ([1]; 279.8 K) is on record?
**A.** Its value is 0.0072 ± 0.0005 kPa.

**Q.** And the “vapor or sublimation pressure” value ([1]; 281.3 K)?
**A.** Its value is 0.00829 ± 0.00057 kPa.

**Q.** And the “vapor or sublimation pressure” value ([1]; 283.7 K)?
**A.** The value was 0.01033 ± 0.00069 kPa.

**Q.** What about the “vapor or sublimation pressure” value ([1]; 285.7 K) of the same compound?
**A.** Its value is 0.01206 ± 0.00081 kPa.

**Q.** And the “vapor or sublimation pressure” value ([1]; 288.3 K)?
**A.** The value was 0.01513 ± 0.001 kPa.

**Q.** And the “vapor or sublimation pressure” value ([1]; 290.3 K)?
**A.** The value was 0.01801 ± 0.0012 kPa.

**Q.** What about the “vapor or sublimation pressure” value ([1]; 292.4 K) of the same compound?
**A.** Its value is 0.02154 ± 0.0014 kPa.

**Q.** And the “vapor or sublimation pressure” value ([1]; 294.3 K)?
**A.** Its value is 0.02516 ± 0.0016 kPa.

**Q.** And the “vapor or sublimation pressure” value ([1]; 297.2 K)?
**A.** The value was 0.03103 ± 0.002 kPa.

**Q.** What about the “vapor or sublimation pressure” value ([1]; 300 K) of the same compound?
**A.** The value was 0.03937 ± 0.0025 kPa.

**Q.** And the “vapor or sublimation pressure” value ([1]; 302.1 K)?
**A.** The value was 0.04606 ± 0.0029 kPa.

**Q.** What about the “vapor or sublimation pressure” value ([1]; 304.1 K) of the same compound?
**A.** The value was 0.05317 ± 0.0034 kPa.

**Q.** What about the “vapor or sublimation pressure” value ([1]; 307.7 K) of the same compound?
**A.** The value was 0.06905 ± 0.0044 kPa.

**Q.** And the “vapor or sublimation pressure” value ([1]; 309.2 K)?
**A.** The value was 0.0755 ± 0.0048 kPa.

**Q.** What about the “vapor or sublimation pressure” value ([1]; 310.1 K) of the same compound?
**A.** Its value is 0.08291 ± 0.0052 kPa.

**Q.** And the “vapor or sublimation pressure” value ([1]; 312 K)?
**A.** The value was 0.09159 ± 0.0058 kPa.

**Q.** What about the “vapor or sublimation pressure” value ([1]; 313.7 K) of the same compound?
**A.** Its value is 0.1049 ± 0.0066 kPa.

**Q.** What does the source list for `Cc1ccccc1C#N` [2-methylbenzonitrile]?
**A.** vapor or sublimation pressure ([1]; 287.4 K): 0.02064 ± 0.0014 kPa; vapor or sublimation pressure ([1]; 289.2 K): 0.02389 ± 0.0015 kPa; vapor or sublimation pressure ([1]; 290.3 K): 0.02582 ± 0.0017 kPa; vapor or sublimation pressure ([1]; 292.4 K): 0.03043 ± 0.002 kPa; vapor or sublimation pressure ([1]; 296.3 K): 0.04075 ± 0.0026 kPa; vapor or sublimation pressure ([1]; 298.1 K): 0.0467 ± 0.003 kPa; vapor or sublimation pressure ([1]; 300.7 K): 0.05531 ± 0.0035 kPa; vapor or sublimation pressure ([1]; 305.1 K): 0.07684 ± 0.0049 kPa; vapor or sublimation pressure ([1]; 308.2 K): 0.0961 ± 0.0061 kPa; vapor or sublimation pressure ([1]; 311 K): 0.1162 ± 0.0073 kPa; vapor or sublimation pressure ([1]; 312 K): 0.1257 ± 0.0079 kPa and 0.1248 ± 0.0079 kPa; vapor or sublimation pressure ([1]; 314.9 K): 0.1494 ± 0.0094 kPa; vapor or sublimation pressure ([1]; 316.1 K): 0.1625 ± 0.01 kPa; vapor or sublimation pressure ([1]; 318.1 K): 0.1865 ± 0.012 kPa; vapor or sublimation pressure ([1]; 321.1 K): 0.2216 ± 0.014 kPa; vapor or sublimation pressure ([1]; 322.2 K): 0.2425 ± 0.015 kPa; vapor or sublimation pressure ([1]; 324.2 K): 0.2729 ± 0.017 kPa

**Q.** What does the source list for `Cc1ccc(C#N)cc1` [4-cyanotoluene]?
**A.** vapor or sublimation pressure ([1]; 302.1 K): 0.03154 ± 0.002 kPa; vapor or sublimation pressure ([1]; 303.2 K): 0.03377 ± 0.0022 kPa; vapor or sublimation pressure ([1]; 305.3 K): 0.04002 ± 0.0026 kPa; vapor or sublimation pressure ([1]; 309.1 K): 0.05079 ± 0.0032 kPa; vapor or sublimation pressure ([1]; 311 K): 0.06008 ± 0.0038 kPa; vapor or sublimation pressure ([1]; 313.1 K): 0.06747 ± 0.0043 kPa; vapor or sublimation pressure ([1]; 315 K): 0.07922 ± 0.005 kPa; vapor or sublimation pressure ([1]; 319.1 K): 0.09993 ± 0.0063 kPa; vapor or sublimation pressure ([1]; 320.9 K): 0.1159 ± 0.0073 kPa; vapor or sublimation pressure ([1]; 322.9 K): 0.1303 ± 0.0081 kPa; vapor or sublimation pressure ([1]; 325 K): 0.1463 ± 0.0092 kPa and 0.1458 ± 0.0092 kPa; vapor or sublimation pressure ([1]; 329 K): 0.1856 ± 0.012 kPa; vapor or sublimation pressure ([1]; 331 K): 0.2118 ± 0.013 kPa; vapor or sublimation pressure ([1]; 332.8 K): 0.2374 ± 0.015 kPa; vapor or sublimation pressure ([1]; 334.9 K): 0.2629 ± 0.016 kPa; Normal melting temperature [1]: 26.2 ± 1.1 °C; Molar enthalpy of transition or fusion [2]: 3.85 ± 0.12 kcal/mol

**Q.** With `Cc1cc(C)c(C#N)c(C)c1` [2,4,6-trimethylbenzonitrile] as the compound, how does the Normal melting temperature [1] read?
**A.** The Normal melting temperature was 52.4 ± 1.1 °C.

**Q.** What about the “Molar enthalpy of transition or fusion” value [2] of the same compound?
**A.** Its value is 3.7 ± 0.12 kcal/mol.
